Laboratory results as given in patent US20130039897A1, “COMPOSITIONS AND METHODS FOR REGULATING NEUTROPHIL MOVEMENT AND NEUTROPHIL NUMBERS IN A BODY REGION” (The Texas A&M University System, priority 2011, published 2013).

System: human neutrophils
Assay: Insall chamber assay with DPPIV enzyme inhibitors, with or without rDPPIV
Type: cell-based
Conditions: FIG. 5; for chemorepulsion of neutrophils away from the source of rDPPIV: inhibitor added with rDPPIV, compared to rDPPIV alone; for attraction or repulsion of human neutrophils: inhibitor alone
Method: Cover slips were then washed twice with PBS, and neutrophils at approximately 5×10^6 cells/ml were allowed to adhere to the coverslip for 15 minutes at 37° C. Two concentric depressions and the separating bridge in an Insall chamber slide were filled with 2% (w/v) BSA-RPMI. The media was removed from the coverslips, which were then placed face down on the chamber. Media was then removed from the outer chamber and was replaced by rDPPIV alone, DPPIV inhibitor alone (Diprotin A, Enzo Life Sciences or DPPI 1 c hydrochloride, Tocris Bioscience (Bristol, UK)), rDPPIV plus DPPIV inhibitor (all in 2% (w/v) BSA-RPMI), or 2% (w/v) BSA-RPMI. Cells located on the bridge between the square depressions were then filmed using the methods of Ochsner, S. A., et al., Disrupted function of tumor necrosis factor-alpha-stimulated gene 6 blocks cumulus cell-oocyte complex expansion. Endocrinology, 2003. 144(10): p. 4376-84, incorporated in material part by reference herein, using a 10× objective for 1 hour at 37° C. in a humidified 5% CO2 incubator. The displacement of at least 10 randomly-chosen cells per experiment was measured over periods of 10 minutes. Cell tracking and track analysis were performed according to the methods of Phillips, J. E. and R. H. Gomer, A secreted protein is an endogenous chemorepellant in Dictyostelium discoideum. Proc Natl Acad Sci U S A, 2012. 109(27): p. 10990 - 10996, incorporated in material part by reference herein, with the exception that videos of an hour in length were processed into 10 minute segments to yield a TIFF stack of 47 images for analysis (with 13-second intervals between images).
DPPIV enzyme activity has been implicated in chemotaxis of hematopoietic stem cells through cleavage of SDF-1. To determine if DPPIV enzyme activity is responsible for neutrophil chemorepulsion, two enzyme inhibitors of DPPIV, Diprotin A and DPPI 1 c HCl, were used in Insall chamber assays along with DPPIV.

In the case of `Cl.N#C[C@@H]1CC[C@H](C#N)N1C(=O)CNC1(CO)CCCC1` [DPPI 1 c HCl, DPPI 1 c hydrochloride], the “chemorepulsion of neutrophils away from the source of rDPPIV” value is reported as “significantly reduced” and the “attraction or repulsion of human neutrophils” value is reported as “caused no attraction or repulsion”.
With `CC[C@H](C)[C@H](N)C(=O)N1CCC[C@H]1C(=O)N[C@H](C(=O)O)[C@@H](C)CC` [Diprotin A] the “chemorepulsion of neutrophils away from the source of rDPPIV” value was “significantly reduced” and the “attraction or repulsion of human neutrophils” value was “caused no attraction or repulsion”.
